Measurements from patent publication US3984547A, “Veterinary feedstuffs” (Bayer Aktiengesellschaft, priority 1971, dated 1976).
≈ marks a conversion by molar mass, not a printed value. Read-outs that look alike come from different tables or passages of the source.

Experiments:
Mycoplasma bovirhinis = assay: MIC, series dilution test (PPLO medium); assay type: cell-based; conditions: 37° C, 18, 24 and 48 h, read-out: minimal inhibitory concentrations (MIC)
Protocol: (§1) For the compound of Example 3, the following minimal inhibitory concentrations (MIC) (γ/ml of nutrient medium) were measured by the series dilution test (PPLO medium), incubation temperature 37° C, determination after 18, 24 and 48 hours.

Mycoplasma gallisepticum = assay: MIC, series dilution test (PPLO medium); assay type: cell-based; conditions: Mycoplasmoides gallisepticum, 37° C, 18, 24 and 48 h, read-out: minimal inhibitory concentrations (MIC)
Protocol: as §1

Mycoplasma granularum = assay: MIC, series dilution test (PPLO medium); assay type: cell-based; conditions: Acholeplasma granularum, 37° C, 18, 24 and 48 h, read-out: minimal inhibitory concentrations (MIC)
Protocol: as §1

Escherichia coli C 165 = assay: ED100 in mice after intraperitoneal infection, Table 3; assay type: in vivo; conditions: read-out: effective 100% dose (ED100)
Protocol: In animal experiments on mice, the effective 100% dose (ED100) in mg/Kg was determined for certain compounds of the invention after intraperitoneal infection and subcutaneous (s.c.) or oral (p.o.) administration of the preparation.

MIC (Mycoplasma bovirhinis): 200 µg/mL (≈ 809 µM)
MIC (Mycoplasma gallisepticum): 100 µg/mL (≈ 405 µM)
MIC (Mycoplasma granularum): 25 µg/mL (≈ 101 µM)
SMILES: CN=Cc1c(C(=O)O)[n+]([O-])c2ccccc2[n+]1[O-] [Example 3]
ED100 (Escherichia coli C 165; C165, oral (p.c. [sic])): 100 mg/kg
ED100 (Escherichia coli C 165; C165, sc, s.c.): 50 mg/kg
